Inconclusive results and toxic doses are left out.
System: CD2F1 mice, L1210 leukemia ip, survival T/C
Assay: NCI In Vivo Anticancer Drug Screen. Data for tumor model L1210 Leukemia (intraperitoneal) in CD2F1 (CDF1) mice
Conditions: endpoint: mean survival time, higher = longer survival
Method in brief: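 Compound-dosed mice with transplantable tumor versus matched vehicle controls; endpoint ratio T/C reported.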

[1] = dose: 50.0 mg/kg/injection, schedule: Q01DX009 (ip), vehicle: saline with Tween-80
[2] = dose: 100.0 mg/kg/injection, schedule: Q01DX009 (ip), vehicle: saline with Tween-80

In the case of `CC1CCC(CC(N)=O)C1(C)C` (stereo not given), the T/C (dose: 100.0 mg/kg/injection, schedule: Q01DX001 (ip), vehicle: saline with Tween-80) is reported as 97 % of control, the T/C (dose: 200.0 mg/kg/injection, schedule: Q01DX001 (ip), vehicle: saline with Tween-80) is reported as 105 % of control and the T/C (dose: 400.0 mg/kg/injection, schedule: Q01DX001 (ip), vehicle: saline with Tween-80) is reported as 97 % of control.

With `C[C@H]1CN1C1=CC(=O)C(N2C[C@@H]2C)=CC1=O` the T/C (dose: 3.13 mg/kg/injection, schedule: Q01DX009 (ip), vehicle: other) was 183 % of control, the T/C (dose: 4.69 mg/kg/injection, schedule: Q01DX009 (ip), vehicle: other) was 168 % of control and the T/C (dose: 6.25 mg/kg/injection, schedule: Q01DX009 (ip), vehicle: other) was 123 % of control. The T/C (dose: 12.6 mg/kg/injection, schedule: Q01DX001 (ip), vehicle: other) was 116 % of control and the T/C (dose: 18.7 mg/kg/injection, schedule: Q04DX003 (ip), vehicle: saline with Tween-80) was 98 % of control.

With `Cc1nc2ccccc2nc1CBr` the T/C (dose: 12.5 mg/kg/injection, schedule: Q01DX009 (ip), vehicle: acetone) was 110 % of control.

With `C=C(Br)CNCCCCCC` the T/C (dose: 12.5 mg/kg/injection, schedule: Q04DX003 (ip), vehicle: Klucel (hydroxypropylcellulose) (HPC)) was 97 % of control, the T/C (dose: 25.0 mg/kg/injection, schedule: Q04DX003 (ip), vehicle: Klucel (hydroxypropylcellulose) (HPC)) was 100 % of control and the T/C (dose: 50.0 mg/kg/injection, schedule: Q04DX003 (ip), vehicle: Klucel (hydroxypropylcellulose) (HPC)) was 94 % of control.

With `CCCCCCCCC[n+]1cccc(C(N)=O)c1` the T/C (dose: 25.0 mg/kg/injection, schedule: Q01DX009 (ip), vehicle: saline with Tween-80) was 97 % of control, the T/C [1] was 101 % of control and the T/C [2] was 95 % of control.

For `CCO`, the T/C (dose: 50.0 mg/kg/injection, schedule: Q03HX024 (ip), vehicle: saline) was 100 % of control, the T/C (dose: 100.0 mg/kg/injection, schedule: Q03HX024 (ip), vehicle: saline) was 102 % of control and the T/C (dose: 125.0 mg/kg/injection, schedule: Q01DX009 (ip), vehicle: saline) was 103 % of control. The T/C (dose: 200.0 mg/kg/injection, schedule: Q03HX024 (ip), vehicle: saline) was 97 % of control, the T/C (dose: 250.0 mg/kg/injection, schedule: Q01DX009 (ip), vehicle: saline) was 100 % of control and the T/C (dose: 400.0 mg/kg/injection, schedule: Q03HX024 (ip), vehicle: saline) was 102 % of control. The T/C (dose: 500.0 mg/kg/injection, schedule: Q01DX001 (ip), vehicle: saline) was 109 % of control, the T/C (dose: 500.0 mg/kg/injection, schedule: Q01DX009 (ip), vehicle: saline) was 105 % of control and the T/C (dose: 1000.0 mg/kg/injection, schedule: Q01DX001 (ip), vehicle: saline) was 108 % of control. For the same compound, the T/C (dose: 1000.0 mg/kg/injection, schedule: Q01DX009 (ip), vehicle: saline) was 103 % of control, the T/C (dose: 2000.0 mg/kg/injection, schedule: Q01DX001 (ip), vehicle: saline) was 103 % of control and the T/C (dose: 4000.0 mg/kg/injection, schedule: Q01DX001 (ip), vehicle: saline) was 111 % of control.

With `[C-]#[O+].[C-]#[O+].[C-]#[O+].[C-]#[O+].[C-]#[O+].[I][Re]` the T/C (dose: 50.0 mg/kg/injection, schedule: Q04DX002 (ip), vehicle: other) was 123 % of control.

In the case of `C[CH2][Pb]([CH2]C)([CH2]C)[O]C(=O)C=C1CCCC1`, the T/C (dose: 0.63 mg/kg/injection, schedule: Q01DX009 (ip), vehicle: saline) is reported as 96 % of control, the T/C (dose: 1.25 mg/kg/injection, schedule: Q01DX009 (ip), vehicle: saline) is reported as 102 % of control and the T/C (dose: 2.5 mg/kg/injection, schedule: Q01DX009 (ip), vehicle: saline) is reported as 95 % of control. For the same compound, the T/C (dose: 5.0 mg/kg/injection, schedule: Q04DX003 (ip), vehicle: saline with Tween-80) was 92 % of control and the T/C (dose: 10.0 mg/kg/injection, schedule: Q04DX003 (ip), vehicle: saline with Tween-80) was 92 % of control.

`Cc1c(C)c(C)c(CCl)c(C)c1C` was tested, and the T/C [1] was 103 % of control and the T/C [2] was 103 % of control.

`O=c1oc(/C=C/c2ccccc2)nc2cc(Cl)ccc12` was tested, and the T/C (dose: 100.0 mg/kg/injection, schedule: Q04DX003 (ip), vehicle: saline with Tween-80) was 94 % of control, the T/C (dose: 200.0 mg/kg/injection, schedule: Q04DX003 (ip), vehicle: saline with Tween-80) was 92 % of control and the T/C (dose: 400.0 mg/kg/injection, schedule: Q04DX003 (ip), vehicle: saline with Tween-80) was 97 % of control.

In the case of `O=C1C2C3SC(c4nc5ccccc5cc43)C2C(=O)N1c1ccccc1` (stereo not given), the T/C (dose: 25.0 mg/kg/injection, schedule: Q01DX001 (ip), vehicle: saline with Tween-80) is reported as 92 % of control and the T/C (dose: 50.0 mg/kg/injection, schedule: Q01DX001 (ip), vehicle: saline with Tween-80) is reported as 92 % of control.

Source: PubChem BioAssay AID256 (DTP/NCI, 2004)
